Results: the pKa sets of Baltruschat and Czodrowski (2020)
Where a SMILES comes first, the peptide text is derived from it.

Conditions: acidic group

In order of falling pKa:
1. Nc1nc([O-])c2nc[nH]c2n1  12.6
2. c1ccc2c(c1)ccc1nc[nH]c12  12.5
3. Cc1cc(C(F)(F)F)n[nH]1  12.3
4. NC(=S)Nc1cccc(Cl)c1  12
5. COc1ccc(C(=S)Nc2ccc(C)cc2)cc1  11.8
6. O=[N+]([O-])c1cccc2c[n+](CCO)ccc12  11.7
7. O=C([O-])/C(=N/O)c1ccccc1  11.6
8. c1ccc(CNc2nnc(-c3ccccc3)s2)cc1  11.5
9. Cc1nn(-c2ccccc2)c(O)c1C  11.3
10. Nc1cc([O-])ccc1O  11.2
11. O=C(C[n+]1ccccc1)c1ccccc1  10.9
12. Cc1cc(Cc2cc([N+](=O)[O-])ccc2[O-])cc(C)c1O  10.9
13. Oc1ccccc1CN1CCCC1  10.8
14. NCCc1ccc(O)c(O)c1  10.6
15. O=C([O-])CCC(=O)NOCc1ccccc1  10.2
16. CN(C)/C=N/c1cccc(O)c1  10.2
17. O=P([O-])([O-])C([NH2+]Cc1ccncc1)c1ccccc1O (centres undefined)  10.2
18. C[N+](C)(C)CCCc1ccc(O)cc1  9.8
19. [O-]C(O)=C1c2ccccc2-c2ccccc21  9.61
20. O=S(=O)([O-])c1c(O)ccc2cn[nH]c12  9.45
21. C[N+](C)(C)CCc1cccc(O)c1  9.43
22. O=C([O-])c1ccc(O)c2ncccc12  9.32
23. CC(=O)/C(CN1CCOCC1)=N\O  9.15
24. CC1=C(O)C(O)=CC1  9.11
25. CC(=O)CC(=O)CC(C)C  9.07
26. CSc1ncc2[nH]cnc2n1  8.91
27. Oc1cc(O)cc(O)c1  8.83
28. OB(O)c1cccc(O)c1  8.55
29. CC[NH+](CC)Cc1cc(F)ccc1O  8.23
30. O/N=C/c1ccc(O)cc1O  8.05
31. O=C(NO)c1ccc([N+](=O)[O-])cc1  8.02
32. CC(=O)/C(Cl)=N/O  7.9
33. NS(=O)(=O)c1nc2ccccc2s1  7.8
34. Clc1ccc2[nH]nnc2c1  7.7
35. Cc1cc(NS(=O)(=O)c2ccc(N)cc2)nc(C)n1  7.49
36. O=CC1=CC=CC1  7.4
37. CCC1(C2=CCCCC2)C(=O)NC(=S)NC1=O  7.12
38. O=C1CCON1  6.7
39. Cn1c(-c2ccccc2O)[nH+]c2ccccc21  5.76
40. C(CSCCc1nnn[nH]1)SCCc1nnn[n-]1  5.64
41. CCc1nnn[nH]1  5.59
42. CC(C)(C(N)=O)S(=O)(=O)NC(N)=O  5.15
43. CCC(C)(O)c1cnc(CC(C)C)c(O)[n+]1[O-] (centres undefined)  5.02
44. C/C=C(\C(=O)O)c1ccc([N+](=O)[O-])cc1  5
45. CC(=O)[C@H]1C[C@@H](CC(=O)O)C1(C)C  4.82
46. C[N+](C)(C)O  4.65
47. O=C(O)c1ccc[nH]1  4.35
48. Cc1ccccc1C(O)C(C(=O)O)c1ccc(-c2ccccc2)cc1 (centres undefined)  4.19
49. On1nnc2cc(Cl)ccc21  4.18
50. C/C(O)=C/C(=O)O  4.05
51. Clc1ccccc1-c1nnn[nH]1  3.69
52. O=C(O)c1cccc2ccc(O)cc12  3.69
53. O=C(O)CSc1ccccc1  3.52
54. O=C(O)c1cccc([N+](=O)[O-])c1  3.47
55. NS(=O)(=O)c1ccsc1C(=O)O  3.3
56. O=C(O)[C@@H]1CCCN1C(=O)[C@@H]1CCC[NH2+]1  3.16
57. O=C1CS(=O)(=O)NC(=O)N1  2.7
58. C=C(F)C(=O)O  2.55
59. O=C(O)C[NH+](CC(=O)O)Cc1cc([N+](=O)[O-])ccc1O  2.4
60. [NH3+]C(Cc1n[nH]c2ccccc12)C(=O)O (centres undefined)  2.2
61. O=C([O-])CN(CC(=O)O)Cc1cc(Cl)cc(C[NH+](CC(=O)[O-])CC(=O)O)c1O  2.2
62. O=[PH](O)c1ccccc1  1.63

Same assay, conditions: basic group

In order of rising pKa:
1. O=C(O)c1ccc[nH]1  -0.65
2. Cc1cc(C(F)(F)F)n[nH]1  -0.5
3. Cc1ccc(-c2cnc(-c3ccc(Br)cc3)o2)cc1  0.56
4. CSc1ncc2[nH]cnc2n1  1.91
5. Nc1ccccc1Cl  2.64
6. Cc1cccc(Cl)c1/C(=N/CCC[NH+](C)C)c1ccccc1  3.26
7. CCc1cccnn1  3.58
8. COc1ccc(NCO)cc1  3.72
9. COC(=O)[C@@H]1CSCN1  3.92
10. CN(C)c1ccc(N=O)cc1  4.54
11. Cc1nc(N)c2ncsc2n1  4.56
12. C[N+](C)(C)CCOC(=O)/C=C/c1c[nH]cn1  4.6
13. O=C([O-])c1ccc(O)c2ncccc12  4.8
14. O=C([O-])c1cccnc1  4.83
15. CNNC  5.2
16. c1ccc2c(c1)ccc1nc[nH]c12  5.28
17. Nc1ccnc2c1ncn2CCOCP(=O)(O)O  5.49
18. Nc1nc(N)c2cn[nH]c2n1  5.58
19. Nc1ccc2ncccc2c1  5.63
20. OCCc1ccncc1  5.68
21. NC(=O)c1c2cccc1COCCOCc1ncc([nH]1)COCCOC2  5.72
22. Cn1cnc2cccc(N)c21  5.79
23. C[C@]1([NH3+])C[C@@H]1N  5.83
24. Cc1cnc2c(c1)c(C)cc1c(C)c(C)cnc12  6.07
25. CC(=O)/C(CN1CCOCC1)=N\O  6.1
26. Cc1cc(-c2ncc[nH]2)n[nH]1  6.16
27. CCOc1ccc2[nH]c(C)nc2c1  6.22
28. CC[NH+](CC)CCN  6.76
29. C#CCN(C)C  7.05
30. CC(=O)NC(Cc1c[nH]cn1)C(=O)[O-] (centres undefined)  7.11
31. C[NH+](C)CCCCCNc1c2ccccc2nc2cccc([N+](=O)[O-])c12  7.4
32. c1ccc2c(c1)C1CCN2CC1  7.79
33. CN(C)/C=N/c1cccc(O)c1  7.88
34. Cc1ccnc([S-])n1  8
35. NCC(=O)N[C@@H](Cc1c[nH]cn1)C(=O)[O-] (H-Gly-His-OH)  8.14
36. [O-]c1cnccn1  8.23
37. CN(CCO)CCO  8.51
38. COc1ccc(CN)c([N+](=O)[O-])c1  8.77
39. Oc1ccccc1CN1CCCC1  8.81
40. C/C=C(/C)C(=O)O[C@H]1CC[C@@]2(C)[C@@H]3CC[C@H]4[C@]5(O)C[C@H](O)[C@@]6(O)[C@@H](CN7C[C@@H](C)CC[C@H]7[C@@]6(C)O)[C@]5(O)C[C@@]42O[C@]13O  8.85
41. NCCc1ccc(O)c(O)c1  8.89
42. COc1ccc(C2CCCN2C)cc1 (centres undefined)  8.9
43. Nc1nc([O-])nc2nc[nH]c12  8.99
44. N[C@@H]1C[C@@H]1N  9.04
45. CN1CC(O[Si](C)(C)C)C1  9.1
46. Nc1nc([O-])c2nc[nH]c2n1  9.3
47. C=C(C)[C@H]1CN[C@H](C(=O)[O-])[C@H]1CC(N)=O  9.47
48. CCC(N)CO (centres undefined)  9.53
49. NCCC[n+]1cc(Br)c2ccccc2c1  9.53
50. NC1Cc2ccccc2C1  9.55
51. CCC(N)C(=O)[O-] (centres undefined)  9.67
52. O=[N+]([O-])c1ccc([O-])c(CN2CCOCCOCCOCCOCC2)c1  9.69
53. COC(=N)N  9.72
54. CCCC[C@H](N)C(=O)[O-]  9.76
55. CCCC(N)C(=O)[O-] (centres undefined)  9.86
56. CN(C)CCCCNC(=O)/C=N/[O-]  10.1
57. NC1(C(=O)[O-])CCCC1  10.1
58. [S-]c1ccc2ccccc2n1  10.2
59. NCCCCCc1ccncc1  10.3
60. NCCCCc1ccccc1  10.4
61. CN(C)[C@H]1CC[C@@H](C)CC1  10.5
62. CNCC(C)CNC  10.6
63. CC1CCCC(C)(C)N1C (centres undefined)  10.8
64. NCC[Se-]  10.9
65. [O-]c1ccccc1CN1CCCCC1  11
66. C[Si](C)(C)CNC[Si](C)(C)C  11
67. CN1CCCCCC1  11
